Here are results for 17 compounds from ChEMBL document CHEMBL1145752, “Dissociation of antibacterial and hemolytic activities of an amphipathic peptide antibiotic” (2003).

Common to all, as to format: functional
Test [1] concerns Bacillus subtilis. As to the kind of experiment: Inhibitory activity was determined against bacillus subtilis (ATCC 82).
Test [2] is described as follows: Tested for minimum concentration for hemolysis of fresh human erythrocytes.
For test [3], the system named is Bacillus subtilis. As to the kind of experiment: Ratio of minimum hemolysis concentration to that of minimum inhibitory concentration.

Converted amounts (≈) assume the structure as drawn.

In turn, `CC[C@H](C)[C@@H]1NC(=O)[C@H](CC(N)=O)NC(=O)[C@@H](Cc2ccccc2)NC(=O)[C@H](Cc2ccccc2)NC(=O)[C@@H]2CCCN2C(=O)[C@@H](Cc2ccccc2)NC(=O)[C@H](CC(C)C)NC(=O)[C@H](CCCN)NC(=O)[C@H](C(C)C)NC(=O)[C@H](Cc2ccc(O)cc2)NC1=O` registered an MIC against Bacillus subtilis [1] of 1.8 µg/mL (≈ 1.43 µM). Further, the MHC in test [2] stood at 45 µg/mL. Moreover, the Ratio in the test on Bacillus subtilis [3] was 25.
As to `CC(C)C[C@@H]1NC(=O)[C@H](CCCN)NC(=O)[C@H](C)NC(=O)[C@H](Cc2ccc(O)cc2)NC(=O)[C@H](CCC(N)=O)NC(=O)[C@H](CC(N)=O)NC(=O)[C@@H](Cc2ccccc2)NC(=O)[C@H](Cc2ccccc2)NC(=O)[C@@H]2CCCN2C(=O)[C@@H](Cc2ccccc2)NC1=O`, in the test with Bacillus subtilis [1], the MIC was 15 µg/mL (≈ 12.1 µM). Moreover, the MHC in test [2] came to 16 µg/mL. In the test on Bacillus subtilis [3], the Ratio turned out to be 1.1.
The matching figures for `CC(C)C[C@@H]1NC(=O)[C@H](CC(N)=O)NC(=O)[C@@H](Cc2ccccc2)NC(=O)[C@H](Cc2ccccc2)NC(=O)[C@@H]2CCCN2C(=O)[C@@H](Cc2ccccc2)NC(=O)[C@H](CC(C)C)NC(=O)[C@H](CCCN)NC(=O)[C@H](C(C)C)NC(=O)[C@H](Cc2ccc(O)cc2)NC1=O`: 0.3 µg/mL (≈ 0.239 µM), 20 µg/mL and 67.
With `CC(C)C[C@@H]1NC(=O)[C@H](CCCN)NC(=O)[C@H](C(C)C)NC(=O)[C@H](Cc2ccc(O)cc2)NC(=O)[C@H](CC(N)=O)NC(=O)[C@H](CC(N)=O)NC(=O)[C@@H](Cc2ccccc2)NC(=O)[C@H](Cc2ccccc2)NC(=O)[C@@H]2CCCN2C(=O)[C@@H](Cc2ccccc2)NC1=O`, 0.4 µg/mL (≈ 0.318 µM) was the least that counted as inhibitory in the test on Bacillus subtilis [1] (MIC). In test [2], this compound registered an MHC of 20 µg/mL. For the same compound, the Ratio in the test with Bacillus subtilis [3] turned out to be 50.
Consider `CC(C)C[C@@H]1NC(=O)[C@H](CCCN)NC(=O)[C@H](C(C)C)NC(=O)[C@H](Cc2ccc(O)cc2)NC(=O)[C@H](CCCN=C(N)N)NC(=O)[C@H](CC(N)=O)NC(=O)[C@@H](Cc2ccccc2)NC(=O)[C@H](Cc2ccccc2)NC(=O)[C@@H]2CCCN2C(=O)[C@@H](Cc2ccccc2)NC1=O`, for which the MIC with Bacillus subtilis [1] was determined as 0.3 µg/mL (≈ 0.231 µM). In test [2], this compound yielded an MHC of 42 µg/mL. Moreover, in the test with Bacillus subtilis [3], the Ratio came out at 140.
As for `CC(C)C[C@@H]1NC(=O)[C@H](CCCN)NC(=O)[C@H](C(C)C)NC(=O)[C@H](Cc2ccc(O)cc2)NC(=O)[C@H](CC(=O)O)NC(=O)[C@H](CC(N)=O)NC(=O)[C@@H](Cc2ccccc2)NC(=O)[C@H](Cc2ccccc2)NC(=O)[C@@H]2CCCN2C(=O)[C@@H](Cc2ccccc2)NC1=O`, in the test with Bacillus subtilis [1], the MIC is 5.3 µg/mL (≈ 4.21 µM). The compound further yielded an MHC in test [2] of 32 µg/mL. For the same compound, the Ratio in the test with Bacillus subtilis [3] came out at 6.
`CC(C)C[C@@H]1NC(=O)[C@H](CCCN)NC(=O)[C@H](C(C)C)NC(=O)[C@H](Cc2ccc(O)cc2)NC(=O)[C@H](Cc2ccc(O)cc2)NC(=O)[C@H](CC(N)=O)NC(=O)[C@@H](Cc2ccccc2)NC(=O)[C@H](Cc2ccccc2)NC(=O)[C@@H]2CCCN2C(=O)[C@@H](Cc2ccccc2)NC1=O`: it took 5 µg/mL (≈ 3.83 µM) to inhibit growth with Bacillus subtilis [1] (MIC). Also, the MHC in test [2] is 120 µg/mL. In the test with Bacillus subtilis [3], the Ratio is on record as 24.
`CC(C)C[C@@H]1NC(=O)[C@H](CCCN)NC(=O)[C@H](C(C)C)NC(=O)[C@H](Cc2ccc(O)cc2)NC(=O)[C@H](CO)NC(=O)[C@H](CC(N)=O)NC(=O)[C@@H](Cc2ccccc2)NC(=O)[C@H](Cc2ccccc2)NC(=O)[C@@H]2CCCN2C(=O)[C@@H](Cc2ccccc2)NC1=O`: the MIC in the test with Bacillus subtilis [1] was determined as 0.3 µg/mL (≈ 0.244 µM). Further, the MHC in test [2] is 16 µg/mL. The Ratio in the test with Bacillus subtilis [3] is on record as 53.
As for `CC(C)[C@@H]1NC(=O)[C@H](Cc2ccc(O)cc2)NC(=O)[C@H](CCC(N)=O)NC(=O)[C@H](CC(N)=O)NC(=O)[C@@H](Cc2ccccc2)NC(=O)[C@H](Cc2ccccc2)NC(=O)[C@@H]2CCCN2C(=O)[C@@H](Cc2ccccc2)NC(=O)[C@H](C)NC(=O)[C@H](CCCN)NC1=O`, it took 25 µg/mL (≈ 20.4 µM) to inhibit growth in the test with Bacillus subtilis [1] (MIC). This compound also gave an MHC in test [2] of 50 µg/mL. The Ratio with Bacillus subtilis [3] came to 2.
`CC(C)C[C@@H]1NC(=O)[C@H](CCCN)NC(=O)[C@H](C(C)C)NC(=O)[C@H](Cc2ccc(O)cc2)NC(=O)[C@H](CCC(N)=O)NC(=O)[C@H](CC(N)=O)NC(=O)[C@@H](Cc2ccccc2)NC(=O)[C@H](C)NC(=O)[C@@H]2CCCN2C(=O)[C@@H](Cc2ccccc2)NC1=O` showed an MIC with Bacillus subtilis [1] of 19 µg/mL (≈ 15.9 µM). This compound came in with an MHC in test [2] of 47 µg/mL. Besides, the Ratio in the test with Bacillus subtilis [3] turned out to be 2.5.
Compound `CC(C)C[C@@H]1NC(=O)[C@H](CCCN)NC(=O)[C@H](C(C)C)NC(=O)[C@H](Cc2ccc(O)cc2)NC(=O)[C@H](CCC(=O)O)NC(=O)[C@H](CC(N)=O)NC(=O)[C@@H](Cc2ccccc2)NC(=O)[C@H](Cc2ccccc2)NC(=O)[C@@H]2CCCN2C(=O)[C@@H](Cc2ccccc2)NC1=O` displayed an MIC with Bacillus subtilis [1] of 7.5 µg/mL (≈ 5.9 µM). Besides, the MHC in test [2] amounted to 30 µg/mL. Further, the Ratio in the test on Bacillus subtilis [3] came out at 4.
With `CC(C)C[C@@H]1NC(=O)[C@H](CCCN)NC(=O)[C@H](C(C)C)NC(=O)[C@H](C)NC(=O)[C@H](CCC(N)=O)NC(=O)[C@H](CC(N)=O)NC(=O)[C@@H](Cc2ccccc2)NC(=O)[C@H](Cc2ccccc2)NC(=O)[C@@H]2CCCN2C(=O)[C@@H](Cc2ccccc2)NC1=O`, the MIC against Bacillus subtilis [1] turned out to be 14 µg/mL (≈ 11.9 µM). Moreover, the MHC in test [2] is 14 µg/mL. In the test with Bacillus subtilis [3], the Ratio was 1.
`CC(C)C[C@@H]1NC(=O)[C@H](CCCN)NC(=O)[C@H](C(C)C)NC(=O)[C@H](Cc2ccc(O)cc2)NC(=O)[C@H](CCC(N)=O)NC(=O)[C@H](CC(N)=O)NC(=O)[C@@H](Cc2ccccc2)NC(=O)[C@H](Cc2ccccc2)NC(=O)[C@@H]2CCCN2C(=O)[C@@H](C)NC1=O` returned an MIC in the test on Bacillus subtilis [1] of 15 µg/mL (≈ 12.6 µM). Also, in test [2], the MHC is 20 µg/mL. The Ratio with Bacillus subtilis [3] is 1.3.
With `CC(C)C[C@@H]1NC(=O)[C@H](CCCN)NC(=O)[C@H](C(C)C)NC(=O)[C@H](Cc2ccc(O)cc2)NC(=O)[C@H](Cc2ccccc2)NC(=O)[C@H](CC(N)=O)NC(=O)[C@@H](Cc2ccccc2)NC(=O)[C@H](Cc2ccccc2)NC(=O)[C@@H]2CCCN2C(=O)[C@@H](Cc2ccccc2)NC1=O`, in the test on Bacillus subtilis [1], the MIC was 0.6 µg/mL (≈ 0.465 µM). Also, in test [2], the MHC turned out to be 18 µg/mL. For the same compound, the Ratio in the test on Bacillus subtilis [3] is 30.
Compound `CC(C)C[C@@H]1NC(=O)[C@H](CCCN)NC(=O)[C@H](C(C)C)NC(=O)[C@H](Cc2ccc(O)cc2)NC(=O)[C@H](Cc2c[nH]c3ccccc23)NC(=O)[C@H](CC(N)=O)NC(=O)[C@@H](Cc2ccccc2)NC(=O)[C@H](Cc2ccccc2)NC(=O)[C@@H]2CCCN2C(=O)[C@@H](Cc2ccccc2)NC1=O` returned an MIC with Bacillus subtilis [1] of 3.8 µg/mL (≈ 2.86 µM). Moreover, the MHC in test [2] amounted to 125 µg/mL. The Ratio in the test with Bacillus subtilis [3] was determined as 33.
In the test on Bacillus subtilis [1], `CC(C)C[C@@H]1NC(=O)[C@H](CCCN)NC(=O)[C@H](C(C)C)NC(=O)[C@H](Cc2ccc(O)cc2)NC(=O)[C@H](CCC(N)=O)NC(=O)[C@H](CC(N)=O)NC(=O)[C@@H](Cc2ccccc2)NC(=O)[C@H](Cc2ccccc2)NC(=O)[C@H](C)NC(=O)[C@@H](Cc2ccccc2)NC1=O` had an MIC of 18 µg/mL (≈ 14.5 µM). In test [2], the MHC is 53 µg/mL. Moreover, in the test with Bacillus subtilis [3], the Ratio was determined as 2.9.
In the case of `CC(C)C[C@@H]1NC(=O)[C@H](CCCN)NC(=O)[C@H](C(C)C)NC(=O)[C@H](Cc2ccc(O)cc2)NC(=O)[C@H](CCC(N)=O)NC(=O)[C@H](C)NC(=O)[C@@H](Cc2ccccc2)NC(=O)[C@H](Cc2ccccc2)NC(=O)[C@@H]2CCCN2C(=O)[C@@H](Cc2ccccc2)NC1=O`, the minimum inhibitory concentration (MIC) against Bacillus subtilis [1] is 15 µg/mL (≈ 12.2 µM). In test [2], this compound showed an MHC of 39 µg/mL. Also, in the test with Bacillus subtilis [3], the Ratio is listed as 2.6.
